Results on eleven compounds are retold here after patent US8039493B2, “Biaryl sulfonamide derivatives” (Hoffmann-La Roche Inc., priority 2008, dated 2011).

One assay addresses T1, human LXR beta (Homo sapiens, UniProt P55055).
T1 construct: human LXR beta (aa 155 to 460); made in house; host or cells: E. coli BL21 (pLysS)
T1 sequence (P55055 155-460): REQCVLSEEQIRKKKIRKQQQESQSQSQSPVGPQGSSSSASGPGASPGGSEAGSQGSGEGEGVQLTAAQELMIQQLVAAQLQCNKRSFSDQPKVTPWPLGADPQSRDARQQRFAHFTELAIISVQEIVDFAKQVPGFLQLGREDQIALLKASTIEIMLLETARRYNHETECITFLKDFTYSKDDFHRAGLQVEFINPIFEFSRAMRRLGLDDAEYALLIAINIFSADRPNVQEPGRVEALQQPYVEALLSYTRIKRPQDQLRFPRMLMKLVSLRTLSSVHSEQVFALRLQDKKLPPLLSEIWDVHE
The experiment in a line: Radioligand binding assay (scintillation proximity), LXR beta-LBD. The settings on record: LXR beta-LBD on SPA beads, read-out: LXRbeta Binding IC50. As to the method:
(§1) The following tests were carried out in order to determine the activity of the compounds of the present invention. […] Mammalian expression vectors were constructed to express full-length human LXR alpha and LXR beta. […] To accomplish this, the portions of the sequences encoding the LBDs were amplified from the full-length clones by PCR and then subcloned into the plasmid vectors.
(§2) Induction, expression, and purification of LBD proteins were performed in E. coli strain BL21 (pLysS) cells by standard methods (Ref: Current Protocols in Molecular Biology, Wiley Press, edited by Ausubel et al).
(§3) Radioligand Binding Assay
(§4) LXR alpha and LXR beta receptor binding were assayed in buffer consisting of 50 mM HEPES, pH 7.4, 10 mM NaCl, 5 mM MgCl2. For each 96-well reaction, 500 ng of LXRα-LBD or 700 ng of LXR beta-LBD proteins were bound to 80 μg or 40 μg SPA beads respectively, in a final volume of 50 μl by shaking. The resulting slurry was incubated for 1 h at RT and centrifuged for 2 min at 1300×g. The supernatant containing unbound protein was removed, and the semi-dry pellet containing the receptor-coated beads was re-suspended in 50 μl of buffer. Radioligand (eg. 100,000 dpm of (N-(2,2,2-trifluoroethyl)-N-[4-(2,2,2-trifluoro-1-hydroxy-1-trifluoromethylethyl)-phenyl]-benzenesulfonamide)) was added, and the reaction incubated at RT for 1 h in the presence of test compounds, and then scintillation proximity counting was performed. All binding assays were performed in 96-well plates and the amount of bound ligand was measured on a Packard TopCount using OptiPlates (Packard). Dose response curves were measured within a range of concentration from 10^−10 M to 10^−4 M.
Background: Scintillation proximity formats need no separation of bound from free tracer.

For a further assay, the target named is T2, human LXR alpha (Homo sapiens, UniProt Q13133).
T2 construct: human LXR alpha (aa 164 to 447); made in house; host or cells: E. coli BL21 (pLysS)
T2 sequence (Q13133 164-447): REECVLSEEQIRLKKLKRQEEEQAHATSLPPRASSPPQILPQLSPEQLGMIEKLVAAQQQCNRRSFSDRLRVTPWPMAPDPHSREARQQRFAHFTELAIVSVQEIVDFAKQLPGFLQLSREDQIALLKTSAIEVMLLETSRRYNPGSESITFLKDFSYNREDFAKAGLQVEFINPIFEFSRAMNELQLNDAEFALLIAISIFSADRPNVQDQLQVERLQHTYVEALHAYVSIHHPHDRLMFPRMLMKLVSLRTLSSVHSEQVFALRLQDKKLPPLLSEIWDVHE
The experiment in a line: Radioligand binding assay (scintillation proximity), LXRα-LBD. The settings on record: LXRα-LBD on SPA beads, read-out: LXRalpha Binding IC50. As to the method:
as §1, §2, §3, §4

For the compound `CS(=O)(=O)c1cccc(-c2ccc(CN(CC3CCC3)S(=O)(=O)c3ccccc3C(F)(F)F)s2)c1` [Example 36, N-Cyclobutylmethyl-N-[5-(3-methanesulfonyl-phenyl)-thiophen-2-ylmethyl]-2-trifluoromethyl-benzenesulfonamide], the figures for the IC50 at human LXR beta and at human LXR alpha were 17.5 nM and 665 nM, respectively.
With `CC(C)(C)OC(=O)CN(Cc1ccc(-c2cccc(S(C)(=O)=O)c2)s1)S(=O)(=O)c1ccccc1C(F)(F)F` [Example 37, [[5-(3-Methanesulfonyl-phenyl)-thiophen-2-ylmethyl]-(2-trifluoromethyl-benzenesulfonyl)-amino]-acetic acid tert-butyl ester], the results for the concentration for half-maximal inhibition (IC50) on human LXR beta and on human LXR alpha were 11.5 nM and 17.5 nM, respectively.
As for `CCN(CC)C(=O)CN(Cc1ccc(-c2cccc(S(C)(=O)=O)c2)s1)S(=O)(=O)c1ccccc1C(F)(F)F` [Example 38, N,N-Diethyl-2-[[5-(3-methanesulfonyl-phenyl)-thiophen-2-ylmethyl]-(2-trifluoromethyl-benzenesulfonyl)-amino]-acetamide], the IC50 (usually the concentration at which inhibition is half-maximal) at human LXR beta turned out to be 160 nM; at human LXR alpha, 2410 nM.
As for `CS(=O)(=O)c1cccc(-c2ccc(CN(CC3OCCO3)S(=O)(=O)c3ccccc3C(F)(F)F)s2)c1` [Example 39, N-[1,3]Dioxolan-2-ylmethyl-N-[5-(3-methanesulfonyl-phenyl)-thiophen-2-ylmethyl]-2-trifluoromethyl-benzenesulfonamide], the results for the IC50 at human LXR beta and on human LXR alpha were 47 nM and 820 nM, respectively.
For `CS(=O)(=O)c1cccc(-c2ccc(CN(CCN3CCCC3)S(=O)(=O)c3ccccc3C(F)(F)F)s2)c1` [Example 40, N-[5-(3-Methanesulfonyl-phenyl)-thiophen-2-ylmethyl]-N-(2-pyrrolidin-1-yl-ethyl)-2-trifluoromethyl-benzenesulfonamide], the IC50 at human LXR beta was determined as 285 nM; on human LXR alpha, 10700 nM.
For `CS(=O)(=O)c1cccc(-c2ccc(CN(CC3CCCO3)S(=O)(=O)c3ccccc3C(F)(F)F)s2)c1` (stereo not shown) [Example 41, N-[5-(3-Methanesulfonyl-phenyl)-thiophen-2-ylmethyl]-N-(tetrahydro-furan-2-ylmethyl)-2-trifluoromethyl-benzenesulfonamide], in that order: 37 nM and 790 nM.
As to `CC(C)CN(Cc1ccc(-c2cccc(S(C)(=O)=O)c2)cc1F)S(=O)(=O)c1ccccc1Cl` [Example 42, 2-Chloro-N-(3-fluoro-3′-methanesulfonyl-biphenyl-4-ylmethyl)-N-isobutyl-benzenesulfonamide], the IC50 at human LXR beta stood at 6.8 nM; on human LXR alpha, 8.2 nM.
As for `CC(C)CN(Cc1cccc(-c2cccc(S(C)(=O)=O)c2)c1)S(=O)(=O)c1ccccc1Cl` [Example 43, 2-Chloro-N-isobutyl-N-(3′-methanesulfonyl-biphenyl-3-ylmethyl)-benzenesulfonamide], the IC50 on human LXR beta turned out to be 19 nM; at human LXR alpha, 26 nM.
Turning to `CC(C)CN(Cc1cncc(-c2cccc(S(C)(=O)=O)c2)c1)S(=O)(=O)c1ccccc1Cl` [Example 44, 2-Chloro-N-isobutyl-N-[5-(3-methanesulfonyl-phenyl)-pyridin-3-ylmethyl]-benzenesulfonamide], the IC50 was 30 nM on human LXR beta and 3440 nM at human LXR alpha.
In the same order, the values of `CC(C)CN(Cc1ccc(-c2cccc(S(C)(=O)=O)c2)cn1)S(=O)(=O)c1ccccc1Cl` [Example 45, 2-Chloro-N-isobutyl-N-[5-(3-methanesulfonyl-phenyl)-pyridin-2-ylmethyl]-benzenesulfonamide] are 2.3 nM and 425 nM.
In the same order, the values of `CC(C)CN(Cc1cccc(-c2cccc(S(C)(=O)=O)c2)n1)S(=O)(=O)c1ccccc1Cl` [Example 47, 2-Chloro-N-isobutyl-N-[6-(3-methanesulfonyl-phenyl)-pyridin-2-ylmethyl]-benzenesulfonamide] are 49.5 nM and 1480 nM.
